The source of these data is ChEMBL document CHEMBL1141002, “Alpha-mercaptoketone based histone deacetylase inhibitors” (Bioorg Med Chem Lett, 2008).

Where “and” joins values, the source holds several entries; their conditions need not be identical. Equal entries are not always repeated.

One may read the EC50 as the concentration needed to bring the measured effect to its halfway point. For orientation: T/C means the ratio of treated to control.

One assay addresses Histone deacetylase. Briefly: Inhibition of histone deacetylase in human HeLa cells assessed as induction of histone H3 hyperacetylation. In kind it is cell-based.
Assay [1] concerns HCT-116. As to the kind of experiment: Cytotoxicity against human HCT116 cells. In kind it is functional, cell-based.
Assay [2] concerns HCT-116. Briefly: Antitumor activity against human HCT116 cells xenografted in nude mouse at 50 mg/kg, po administered once a day for 14 days relative to control. It counts as functional. (In general: A xenograft is tissue or cells of one species grown in another, often human tumour cells in immunodeficient mice.)

For the molecule `CC(=O)SCC(=O)c1ccc(NS(=O)(=O)c2ccc(C)cc2)cc1`, the figures for the EC50 on Histone deacetylase and in the assay on HCT-116 [1] were 100 nM and 6500 nM, respectively.

Take `CC(=O)SCC(=O)c1ccc(NS(=O)(=O)c2ccc3c(c2)ncn3C)cc1`: the EC50 on Histone deacetylase was 79 nM and 38 nM; in the assay with HCT-116 [1], 1800 nM. For the molecule `CC(=O)SCC(=O)c1ccc(C(=O)Nc2ccc(OC(F)(F)F)cc2)cc1`, the EC50 at Histone deacetylase amounted to 67100 nM. With `COc1ccc(S(=O)(=O)Nc2ccc(C(=O)CSC(C)=O)cc2)cc1OC`, the EC50 at Histone deacetylase came out at 280 nM; in the assay with HCT-116 [1], 3200 nM.

For `CC(=O)SCC(=O)c1ccc(NS(=O)(=O)c2ccc3c(c2)NCC3)cc1`, the EC50 on Histone deacetylase came out at 47 nM; in the assay with HCT-116 [1], 3300 nM. `CC(=O)SCC(=O)c1ccc(NS(=O)(=O)c2ccc3c(c2)N(C(C)=O)CC3)cc1`: the EC50 stood at 91 nM on Histone deacetylase and 4600 nM with HCT-116 [1]. Regarding `CC(=O)SCC(=O)c1ccc(NS(=O)(=O)c2ccc3c(c2)ncn3C)nc1`, the EC50 was found to be 240 nM on Histone deacetylase and 4900 nM in the assay with HCT-116 [1]. The like results for `CC(=O)SCC(=O)c1ccc(NS(=O)(=O)c2ccc3c(c2)CCO3)nc1` were, in that order, 95 nM and 6400 nM. Consider `CC(=O)SCC(=O)c1ccc(NS(=O)(=O)c2ccc3ccccc3c2)cc1`, for which the figures for the EC50 on Histone deacetylase and with HCT-116 [1] were 29 nM and 2600 nM, respectively. Taken in the same sequence, the figures for `CC(=O)SCC(=O)c1ccc(NS(=O)(=O)c2ccc3c(c2)CCN3)cc1` were 160 nM and 1100 nM. Regarding `CC(=O)SCC(=O)c1ccc(NS(=O)(=O)c2ccc3c(c2)OCO3)nc1`, the EC50 on Histone deacetylase amounted to 360 nM; in the assay with HCT-116 [1], 5500 nM. Taken in the same sequence, the figures for `CC(=O)SCC(=O)c1ccc(NS(=O)(=O)c2ccc3c(c2)OCO3)cc1` were 88 nM and 1400 nM. In the case of `CC(=O)SCC(=O)c1ccc(NS(=O)(=O)c2ccccc2)nc1`, the results for the EC50 at Histone deacetylase and in the assay with HCT-116 [1] were 150 nM and 5300 nM, respectively.

Consider `CC(=O)SCC(=O)c1ccc(NS(=O)(=O)c2ccc3c(c2)CCO3)cc1`, for which the EC50 at Histone deacetylase came out at 82 nM; with HCT-116 [1], 3200 nM. The like results for `CC(=O)SCC(=O)c1ccc(NS(=O)(=O)c2ccc3ccccc3c2)nc1` were, in that order, 42 nM and 4900 nM. As for `CC(=O)SCC(=O)c1ccc(NS(=O)(=O)c2ccc3cc[nH]c3c2)cc1`, the EC50 is 44 nM at Histone deacetylase and 600 nM in the assay on HCT-116 [1].

As to `CC(=O)SCC(=O)c1ccc(N(C)S(=O)(=O)c2ccc(OC(F)(F)F)cc2)cc1`, the EC50 at Histone deacetylase is 4300 nM.

As to `CC(=O)SCC(=O)c1ccc(NS(=O)(=O)c2ccc(Cl)c(Cl)c2)cc1`, the EC50 at Histone deacetylase stood at 420 nM. On the same count and under the same terms, as for `CC(=O)SCC(=O)c1ccc(NS(=O)(=O)c2cccc(F)c2)cc1`, the figure is 460 nM.

Take `CC(=O)SCC(=O)c1ccc(NS(=O)(=O)c2ccc(Cl)cc2)cc1`: the EC50 at Histone deacetylase was 280 nM; with HCT-116 [1] it was 30800 nM. As for `CC(=O)SCC(=O)c1ccc(NS(=O)(=O)c2cccc(OC(F)(F)F)c2)cc1`, at Histone deacetylase, the EC50 was found to be 790 nM. `CC(=O)SCC(=O)c1ccc(NS(=O)(=O)c2ccc(OC(F)(F)F)cc2)cc1`: the EC50 stood at 200 nM on Histone deacetylase and 8800 nM with HCT-116 [1]. Taken in the same sequence, the figures for `COc1ccc(S(=O)(=O)Nc2ccc(C(=O)CSC(C)=O)cc2)cc1` were 50 nM and 500 nM. In the case of `CC(=O)SCC(=O)c1ccc(NS(=O)(=O)c2ccc(C(F)(F)F)cc2)cc1`, the EC50 on Histone deacetylase stood at 2100 nM. Regarding `CC(=O)SCC(=O)c1ccc(S(=O)(=O)Nc2ccc(OC(F)(F)F)cc2)cc1`, the EC50 stood at 1000 nM on Histone deacetylase and 16100 nM in the assay on HCT-116 [1]. In the case of `CC(=O)SCC(=O)c1ccc(NS(=O)(=O)c2ccccc2Cl)cc1`, at Histone deacetylase, the EC50 was 850 nM.

With `CC(=O)SCC(=O)c1ccc(NS(=O)(=O)c2cccc(Cl)c2)cc1`, the concentration giving a half-maximal response (EC50) at Histone deacetylase was 150 nM. Take `CC(=O)SCC(=O)c1ccc(NS(=O)(=O)c2ccc3c(c2)OCCN3C)cc1`: the values for the EC50 at Histone deacetylase and with HCT-116 [1] were 100 nM and 2600 nM, respectively. The like results for `CC(=O)SCC(=O)c1ccc(NS(=O)(=O)c2ccc3[nH]ccc3c2)cc1` were, in that order, 59 nM and 1500 nM. The like results for `CC(=O)SCC(=O)c1ccc(NS(=O)(=O)c2ccc3c(c2)OCCN3C)nc1` were, in that order, 150 nM and 9600 nM.

Consider `CC(=O)SCC(=O)c1ccc(NS(=O)(=O)c2ccc3c(c2)OCCO3)cc1`, for which the results for the EC50 at Histone deacetylase and with HCT-116 [1] were 26 nM and 400 nM, respectively. For the same molecule, in the assay with HCT-116 [2], the T/C was determined as 87%. Turning to `CC(=O)SCC(=O)c1ccc(NCc2ccc(OC(F)(F)F)cc2)cc1`, the EC50 on Histone deacetylase was 1500 nM. With `CC(=O)SCC(=O)c1ccc(NS(=O)(=O)c2ccccc2)cc1`, the half-maximal effective concentration (EC50) turned out to be 330 nM at Histone deacetylase and 15400 nM in the assay with HCT-116 [1].

In the case of `COc1cccc(S(=O)(=O)Nc2ccc(C(=O)CSC(C)=O)cc2)c1`, the EC50 at Histone deacetylase was 170 nM; in the assay with HCT-116 [1], 2600 nM. Take `CC(=O)SCC(=O)c1ccc(NC(=O)Nc2ccc(OC(F)(F)F)cc2)cc1`: the EC50 on Histone deacetylase is 11200 nM.

As for `CC(=O)SCC(=O)c1ccc(NS(=O)(=O)c2ccc(F)cc2)cc1`, the 50% effective concentration (EC50) at Histone deacetylase worked out at 950 nM.
